Experimental data as given in US11325900B2, “5-(pyrimidin-4-yl)thiazol-2-yl urea derivatives as therapeutic agents” (AUCENTRA HOLDINGS PTY LTD, priority 2018, dated 2022).

Tests used:
[1] = tested on: MV-4-11; test: Cell viability assay (resazurin, leukemia cell lines), 72 h growth inhibition; assay type: cell-based; details: Homo sapiens, MV4-11, MV-4-11 cells
Description: (§1) Compounds from Example 1 may be subjected to a standard MTT (3-(4,5-dimethylthiazol-2-yl)-2,5-diphenyltetrazolium bromide) and resazurin assays on solid tumour cell lines and leukemia cell lines, respectively, as previously reported (Wang S et al., J Med Chem 47:1662-1675, 2004 and Diab S e al. CheMedChem 9:962-972, 2014). Compound concentrations required to inhibit 50% of cell growth (GI50) can be calculated using non-linear regression analysis.

[2] = tested on: HCT-116; test: Cell viability assay (MTT, solid tumour cell lines), 72 h growth inhibition; assay type: cell-based; details: Homo sapiens, HCT-116 cells
Description: as §1

[3] = target: T1, CDK8/CycC (Homo sapiens, UniProt P49336); test: Radiometric protein kinase assay (33PanQinase Activity Assay, ProQinase); assay type: biochemical; details: 1.0 μM ATP, 1.0 μg/50 μL substrate RBER-IRStide, duplicate measurements, read-out: CDK8 Kinase inhibition IC50
T1 construct: purchased ProQinase GmbH, Freiburg, Germany
T1 sequence (P49336 whole entry): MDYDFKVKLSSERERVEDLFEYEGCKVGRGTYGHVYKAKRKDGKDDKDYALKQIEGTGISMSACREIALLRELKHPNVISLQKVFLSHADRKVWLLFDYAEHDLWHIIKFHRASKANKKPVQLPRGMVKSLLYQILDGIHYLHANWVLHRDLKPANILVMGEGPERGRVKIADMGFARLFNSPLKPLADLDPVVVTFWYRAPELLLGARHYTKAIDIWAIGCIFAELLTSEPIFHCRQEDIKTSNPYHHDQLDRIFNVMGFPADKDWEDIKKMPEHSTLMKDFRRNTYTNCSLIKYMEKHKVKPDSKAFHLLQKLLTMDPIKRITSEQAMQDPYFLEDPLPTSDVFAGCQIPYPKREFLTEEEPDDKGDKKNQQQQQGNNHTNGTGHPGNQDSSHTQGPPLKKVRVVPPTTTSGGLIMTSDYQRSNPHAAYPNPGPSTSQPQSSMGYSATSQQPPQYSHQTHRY
T1 sequence (P24863 whole entry partner): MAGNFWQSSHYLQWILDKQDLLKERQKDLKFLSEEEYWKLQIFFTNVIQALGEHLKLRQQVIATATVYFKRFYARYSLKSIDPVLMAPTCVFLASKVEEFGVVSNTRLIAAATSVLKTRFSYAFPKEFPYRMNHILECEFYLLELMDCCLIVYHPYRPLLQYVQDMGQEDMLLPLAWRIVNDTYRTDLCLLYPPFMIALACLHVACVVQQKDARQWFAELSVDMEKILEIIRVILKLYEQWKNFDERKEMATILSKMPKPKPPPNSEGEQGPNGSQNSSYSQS
Description: The kinase activity of CDK8/CycC was measured using a radiometric protein kinase assay (33PanQinase® Activity Assay) by ProQinase GmbH, Freiburg, Germany, with the protocols shown at www.proqinase.com/sites/default/files/public/uploads/WildtypeProfiler/radiometric_assay_v05_2012_manual.pdf. IC50 determination (8.3 nM with 1.0 μM ATP and 1.0 μg/50 μL of substrate RBER-IRStide) was performed as duplicate measurements and calculated using Quattro Workflow V3.1.1 (Quattro Research GmbH, Germany). Apparent inhibition constants (Ki) values were calculated from Km (ATP) and IC50 values for the respective kinases.

Structure (SMILES) | GI50 [1] | GI50 [2] | IC50 [3]
CNc1nccc(-c2sc(NC(=O)Nc3ccccc3)nc2C)n1 [Compound 1, 1-(4-Methyl-5-(2-(methylamino)pyrimidin-4-yl)thiazol-2-yl)-3-phenylurea] | 639 ± 120 nM | 1510 ± 60 nM | 36 nM
CNc1nccc(-c2sc(NC(=O)Nc3ccccc3F)nc2C)n1 [Compound 3, 1-(2-Fluorophenyl)-3-(4-methyl-5-(2-(methylamino)pyrimidin-4-yl)thiazol-2-yl)urea] | 952 ± 200 nM | 1590 ± 60 nM | 42 nM
CNc1nccc(-c2sc(NC(=O)Nc3ccccc3OC)nc2C)n1 [Compound 4, 1-(2-Methoxyphenyl)-3-(4-methyl-5-(2-(methylamino)pyrimidin-4-yl)thiazol-2-yl)urea] | 457 ± 180 nM | 537 ± 140 nM | 49 nM
CNc1nccc(-c2sc(NC(=O)Nc3ccc(C(F)(F)F)c(Cl)c3)nc2C)n1 [Compound 5, 1-(3-Chloro-4-(trifluoromethyl)-phenyl)-3-(4-methyl-5-(2-(methylamino)pyrimidin-4-yl)thiazol-2-yl)urea] | 3810 ± 580 nM | 7100 ± 960 nM | 25 nM
CNc1nccc(-c2sc(NC(=O)Nc3cc(C(F)(F)F)ccc3C(F)(F)F)nc2C)n1 [Compound 9, 1-(2,5-Bis(trifluoromethyl)phenyl)-3-(4-methyl-5-(2-(methylamino)-pyrimidin-4-yl)thiazol-2-yl)urea] | 526 ± 40 nM | 519 ± 160 nM | 41 nM
CNc1nccc(-c2sc(NC(=O)Nc3cccc(C(F)(F)F)c3)nc2C)n1 [Compound 10, 1-(4-Methyl-5-(2-(methylamino)-pyrimidin-4-yl)thiazol-2-yl)-3-(3-(trifluoromethyl)phenyl)urea] | 870 ± 360 nM | 510 ± 30 nM | 10 nM
CCOc1cccc(NC(=O)Nc2nc(C)c(-c3ccnc(NC)n3)s2)c1 [Compound 19, 1-(3-Ethoxyphenyl)-3-(4-methyl-5-(2-(methylamino)pyrimidin-4-yl)thiazol-2-yl)urea] | – | 854 ± 10 nM | 6 nM
CNc1ncc(Cl)c(-c2sc(NC(=O)Nc3ccc(CN4CCN(C)CC4)c(C(F)(F)F)c3)nc2C)n1 [Compound 65, 1-(5-(5-Chloro-2-(methylamino)pyrimidin-4-yl)-4-methylthiazol-2-yl)-3-(4-((4-methylpiperazin-1-yl)methyl)-3-(trifluoromethyl)phenyl)urea] | 55 ± 10 nM | – | 15 nM
CCN1CCN(Cc2ccc(NC(=O)Nc3nc(C)c(-c4nc(NC)ncc4Cl)s3)cc2C(F)(F)F)CC1 [Compound 66, 1-(5-(5-Chloro-2-(methylamino)pyrimidin-4-yl)-4-methylthiazol-2-yl)-3-(4-((4-ethylpiperazin-1-yl)methyl)-3-(trifluoromethyl)phenyl)urea] | 73 ± 30 nM | – | 21 nM
CNc1ncc(Cl)c(-c2sc(NC(=O)Nc3ccc(CN4CCN(C(C)C)CC4)c(C(F)(F)F)c3)nc2C)n1 [Compound 67, 1-(5-(5-Chloro-2-(methylamino)pyrimidin-4-yl)-4-methylthiazol-2-yl)-3-(4-((4-isopropylpiperazin-1-yl)methyl)-3-(trifluoromethyl)phenyl)urea] | 174 ± 10 nM | – | 30 nM
CNc1ncc(Cl)c(-c2sc(NC(=O)Nc3ccc(CN4CCN(C(C)=O)CC4)c(C(F)(F)F)c3)nc2C)n1 [Compound 68, 1-(4-((4-Acetylpiperazin-1-yl)methyl)-3-(trifluoromethyl)phenyl)-3-(5-(5-chloro-2-(methylamino)pyrimidin-4-yl)-4-methylthiazol-2-yl)urea] | 4250 ± 420 nM | – | 80 nM
CNc1ncc(Cl)c(-c2sc(NC(=O)Nc3ccc(CN4CCN(S(C)(=O)=O)CC4)c(C(F)(F)F)c3)nc2C)n1 [Compound 69, 1-(5-(5-Chloro-2-(methylamino)pyrimidin-4-yl)-4-methylthiazol-2-yl)-3-(4-((4-(methylsulfonyl)piperazin-1-yl)methyl)-3-(trifluoromethyl)phenyl)urea] | 4690 ± 420 nM | – | 132 nM
CNc1ncc(F)c(-c2sc(NC(=O)Nc3ccc(CN4CCOCC4)c(C(F)(F)F)c3)nc2C)n1 [Compound 70, 1-(5-(5-Fluoro-2-(methylamino)pyrimidin-4-yl)-4-methylthiazol-2-yl)-3-(4-(morpholinomethyl)-3-(trifluoromethyl)phenyl)urea] | 273 ± 10 nM | – | 25 nM
CNc1ncc(C#N)c(-c2sc(NC(=O)Nc3ccc(CN4CCN(C)CC4)c(C(F)(F)F)c3)nc2C)n1 [Compound 71, 1-(5-(5-Cyano-2-(methylamino)pyrimidin-4-yl)-4-methylthiazol-2-yl)-3-(4-((4-methylpiperazin-1-yl)methyl)-3-(trifluoromethyl)phenyl)urea] | 200 ± 20 nM | – | 50 nM
CCN1CCN(Cc2ccc(NC(=O)Nc3nc(C)c(-c4nc(NC)ncc4C#N)s3)cc2C(F)(F)F)CC1 [Compound 72, 1-(5-(5-Cyano-2-(methylamino)pyrimidin-4-yl)-4-methylthiazol-2-yl)-3-(4-((4-ethylpiperazin-1-yl)methyl)-3-(trifluoromethyl)phenyl)urea] | 432 ± 10 nM | – | 64 nM
CNc1ncc(C#N)c(-c2sc(NC(=O)Nc3ccc(CN4CCN(C(C)C)CC4)c(C(F)(F)F)c3)nc2C)n1 [Compound 73, 1-(5-(5-Cyano-2-(methylamino)pyrimidin-4-yl)-4-methylthiazol-2-yl)-3-(4-((4-isopropylpiperazin-1-yl)methyl)-3-(trifluoromethyl)phenyl)urea] | 482 ± 30 nM | – | 59 nM
CNc1ncc(C#N)c(-c2sc(NC(=O)Nc3ccc(CN4CCN(S(C)(=O)=O)CC4)c(C(F)(F)F)c3)nc2C)n1 [Compound 74, 1-(5-(5-Cyano-2-(methylamino)pyrimidin-4-yl)-4-methylthiazol-2-yl)-3-(4-((4-(methylsulfonyl)piperazin-1-yl)methyl)-3-(trifluoromethyl)phenyl)urea] | 3250 ± 350 nM | – | 272 nM
CNc1ncc(C#N)c(-c2sc(NC(=O)Nc3ccc(CN4CCOCC4)c(C(F)(F)F)c3)nc2C)n1 [Compound 75, 1-(5-(5-Cyano-2-(methylamino)pyrimidin-4-yl)-4-methylthiazol-2-yl)-3-(4-(morpholinomethyl)-3-(trifluoromethyl)phenyl)urea] | 3420 ± 230 nM | – | 82 nM
Cc1nc(NC(=O)Nc2ccc(CN3CCN(C)CC3)c(C(F)(F)F)c2)sc1-c1ccnc(C(C)C)n1 [Compound 76, 1-(5-(2-Isopropylpyrimidin-4-yl)-4-methylthiazol-2-yl)-3-(4-((4-methylpiperazin-1-yl)methyl)-3-(trifluoromethyl)phenyl)urea] | < 1 nM | – | 74 nM
CC(=O)N1CCN(Cc2ccc(NC(=O)Nc3nc(C)c(-c4ccnc(C(C)C)n4)s3)cc2C(F)(F)F)CC1 [Compound 77, 1-(4-((4-Acetylpiperazin-1-yl)methyl)-3-(trifluoromethyl)phenyl)-3-(5-(2-isopropylpyrimidin-4-yl)-4-methylthiazol-2-yl)urea] | 712 ± 20 nM | – | 169 nM
Cc1nc(NC(=O)Nc2ccc(CN3CCN(S(C)(=O)=O)CC3)c(C(F)(F)F)c2)sc1-c1ccnc(C(C)C)n1 [Compound 78, 1-(5-(2-Isopropylpyrimidin-4-yl)-4-methylthiazol-2-yl)-3-(4-((4-(methylsulfonyl)-piperazin-1-yl)methyl)-3-(trifluoromethyl)phenyl)urea] | 1590 ± 90 nM | – | 293 nM
Cc1nc(NC(=O)Nc2ccc(CN3CCOCC3)c(C(F)(F)F)c2)sc1-c1ccnc(C(C)C)n1 [Compound 79, 1-(5-(2-Isopropylpyrimidin-4-yl)-4-methylthiazol-2-yl)-3-(4-(morpholinomethyl)-3-(trifluoromethyl)phenyl)urea] | 998 ± 60 nM | – | 206 nM
CSc1nccc(-c2sc(NC(=O)Nc3ccc(CN4CCN(C)CC4)c(C(F)(F)F)c3)nc2C)n1 [Compound 80, 1-(4-Methyl-5-(2-(methylthio)pyrimidin-4-yl)thiazol-2-yl)-3-(4-((4-methyl-piperazin-1-yl)methyl)-3-(trifluoromethyl)phenyl)urea] | 1 nM | – | 79 nM
CSc1nccc(-c2sc(NC(=O)Nc3ccc(CN4CCN(C(C)=O)CC4)c(C(F)(F)F)c3)nc2C)n1 [Compound 81, 1-(4-((4-Acetylpiperazin-1-yl)methyl)-3-(trifluoromethyl)phenyl)-3-(4-methyl-5-(2-(methylthio)pyrimidin-4-yl)thiazol-2-yl)urea] | 715 ± 10 nM | – | 177 nM
CSc1nccc(-c2sc(NC(=O)Nc3ccc(CN4CCN(S(C)(=O)=O)CC4)c(C(F)(F)F)c3)nc2C)n1 [Compound 82, 1-(4-Methyl-5-(2-(methylthio)pyrimidin-4-yl)thiazol-2-yl)-3-(4-((4-(methyl-sulfonyl)piperazin-1-yl)methyl)-3-(trifluoromethyl)phenyl)urea] | 721 ± 30 nM | – | 220 nM
CSc1nccc(-c2sc(NC(=O)Nc3ccc(CN4CCOCC4)c(C(F)(F)F)c3)nc2C)n1 [Compound 83, 1-(4-Methyl-5-(2-(methylthio)pyrimidin-4-yl)thiazol-2-yl)-3-(4-(morpholinomethyl)-3-(trifluoromethyl)phenyl)urea] | 1560 ± 100 nM | – | 121 nM
